Measurements taken from patent US8735412B2, “Sulfoximine-substituted anilinopyrimidine derivatives as CDK inhibitors, the production thereof, and use as medicine” (Bayer Intellectual Property GmbH, priority 2008, dated 2014).
pIC50: −log10 of the molar value. Like-named read-outs stand apart in the source and are kept apart here.

Key:
[1] = test system: HeLa-MaTu cervical carcinoma cells; assay: Proliferation assay (Assay 4), crystal violet staining; type: cell-based; conditions: Homo sapiens, 96 h, 4 days incubation; read-out: HeLa-MaTu (Assay 4) Concentration for 50% inhibition of cellular proliferation, IC50
Experimental: 10.4 Assay 4: Proliferation Assay
Cultivated human HeLa-MaTu cervical carcinoma cells (obtained from EPO-GmbH, Berlin) were plated at a density of 3000 cells/measuring point in a 96-well multititer is plate in 200 μl of growth medium (DMEM/HAMS F12, 2 mM L-glutamine, 10% fetal calf serum). After 24 hours the cells of one plate (zero-point plate) were stained with crystal violet (see below), whereas the medium of the other plates was replaced with fresh culture medium (200 μl), to which the test substances had been added at various concentrations (0 μM, and in the range 0.01-30 μM; the final concentration of the solvent dimethylsulfoxide was 0.5%). The cells were incubated for 4 days in the presence of the test substances. Cellular proliferation was determined by staining the cells with crystal violet: the cells were fixed by adding 20 μl/measuring point of an 11% glutaraldehyde solution for 15 min at room temperature. After washing the fixed cells with water three times, the plates were dried at room temperature. The cells were stained by adding 100 μl/measuring point of a 0.1% crystal violet solution (pH adjusted to pH3 by adding acetic acid). After washing the stained cells with water three times, the plates were dried at room temperature. The dye was dissolved by adding 100 μl/measuring point of a 10% acetic acid solution. The extinction was determined photometrically at a wavelength of 595 nm. The percentage change in cell growth was calculated by standardization of the measured values to the extinction values of the zero-point plate (=0%) and the extinction of the untreated (0 μM) cells (=100%). The measured data were standardized to 0% inhibition (cell proliferation without inhibitor) and 100% inhibition (zero-point plate). The IC50 values were determined by means of a 4-parameter fit using the company's own software.

[2] = test system: HeLa-MaTu human cervical carcinoma xenograft; assay: HeLa-MaTu cervical tumor xenograft model on NMRI nude mice; type: in vivo; conditions: oral
Experimental: HeLa-MaTu (EPO-GmbH, Berlin) human cervical carcinoma cells, which were grown in cell culture, were implanted subcutaneously in the flank of female NMRI nude mice. […] The study was terminated as soon as the tumors in one of the groups reached a size of approx. 150 mm^2.
(§1) The growth-inhibiting effect of the compounds was tested in the HeLa-MaTu cervical tumor model as xenograft on NMRI nude mice. […] Treatment of the established tumors was begun on day 4 after inoculation of the tumors.
as §1, §1
(§2) The study was designed for determining the initial response of a human cervical carcinoma xenograft model to treatments with the 5-Br comparative substance V12. The growth-inhibiting effect of the compounds was tested in the HeLa-MaTu cervical tumor model as xenograft on NMRI nude mice. V12 was dissolved completely in the solubilizer 40% polyethylene glycol 400 (PEG 400)/60% water to a final concentration of 0.7 mg/ml (group 2), 0.85 mg/ml (group 3), or 1.0 mg/ml (group 4). Treatment of the established tumors was begun on day 4 after inoculation of the tumors.
HeLa-MaTu (EPO-GmbH, Berlin) human cervical carcinoma cells, which were grown in cell culture, were implanted subcutaneously in the flank of female NMRI nude mice. […] The study was terminated as soon as the tumors in one of the groups reached a size of approx. 160 mm^2.
(§3) The growth-inhibiting effect of the compounds was tested in the HeLa-MaTu cervical tumor model as xenograft on NMRI nude mice. […] Treatment of the established tumors was begun on day 5 after inoculation of the tumors.
as §3, §3
The following test groups were used: • Group 1: Control, treatment with solubilizer (40% PEG 400/60% water) • Group 2: Compound according to WO 2005/037800 prepared according to preparation V14 disclosed above • (6 mg/kg, oral, 2x daily on day 5, 6, 12, 13, 19, 20) • Group 3: Compound according to WO 2005/037800 prepared according to preparation V14 disclosed above • (8 mg/kg, oral, 2× daily on day 5, 6, 12, 13, 19, 20) • Group 4: Compound according to WO 2005/037800 prepared according to preparation V14 disclosed above • (10 mg/kg, oral, 2× daily on day 5, 6, 12, 13, 19, 20)
as §2, with “substance V14.” for “substance V12.”, “mice. V14” for “mice. V12”, “of 0.6” for “of 0.7”, “2), 0.8” for “2), 0.85”, “day 5” for “day 4”

[3] = target: T1, CDK1/CycB (Homo sapiens, UniProt P06493); assay: CDK1/CycB kinase assay (Assay 1); type: biochemical; conditions: 0.5 μM ATP, histon IIIS substrate; read-out: CDK1/CycB (Assay 1) Concentration for 50% inhibition of enzyme activity, IC50
T1 construct: purchased ProQinase GmbH, Freiburg; host or cells: baculovirus-infected insect cells (Sf9)
T1 sequence (P06493 whole entry): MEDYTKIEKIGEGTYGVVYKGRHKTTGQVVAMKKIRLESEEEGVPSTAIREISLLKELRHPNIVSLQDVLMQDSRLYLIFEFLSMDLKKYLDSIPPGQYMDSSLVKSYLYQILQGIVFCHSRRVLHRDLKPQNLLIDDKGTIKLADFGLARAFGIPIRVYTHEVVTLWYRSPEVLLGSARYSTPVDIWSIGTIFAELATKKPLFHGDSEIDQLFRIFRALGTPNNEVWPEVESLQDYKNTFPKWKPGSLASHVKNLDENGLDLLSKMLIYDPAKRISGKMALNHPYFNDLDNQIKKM
T1 sequence (P14635 whole entry partner): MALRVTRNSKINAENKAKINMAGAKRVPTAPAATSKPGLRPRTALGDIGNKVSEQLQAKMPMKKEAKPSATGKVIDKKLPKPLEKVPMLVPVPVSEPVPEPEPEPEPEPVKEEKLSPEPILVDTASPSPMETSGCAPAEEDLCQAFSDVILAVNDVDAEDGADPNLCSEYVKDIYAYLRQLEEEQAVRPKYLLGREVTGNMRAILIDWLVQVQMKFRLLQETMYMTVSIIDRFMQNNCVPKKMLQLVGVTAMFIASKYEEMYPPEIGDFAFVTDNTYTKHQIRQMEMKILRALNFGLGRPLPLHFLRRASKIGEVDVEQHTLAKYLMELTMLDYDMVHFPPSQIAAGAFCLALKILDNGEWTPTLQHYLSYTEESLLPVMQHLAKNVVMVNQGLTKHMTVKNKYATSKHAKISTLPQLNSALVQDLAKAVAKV
Experimental: 10.1 Assay 1: CDK1/CycB Kinase Assay
Recombinant CDK1 and CycB-GST fusion proteins, purified from baculovirus-infected insect cells (Sf9), were purchased from ProQinase GmbH, Freiburg. The histon IIIS used as kinase substrate is commercially available from the company Sigma.
(§4) CDK1/CycB (200 ng/measuring point) was incubated for 10 min at 22° C. in the presence of various concentrations of test substances (0 μM, and within the range 0.01-100 μM) in assay buffer [50 mM Tris/HCl pH8.0, 10 mM MgCl2, 0.1 mM Na ortho-vanadate, 1.0 mM dithiothreitol, 0.5 μM adenosine triphosphate (ATP), 10 μg/measuring point histon IIIS, 0.2 μCi/measuring point ^33P-gamma ATP, 0.05% NP40, 1.25% dimethylsulfoxide]. The reaction was stopped by adding EDTA solution (250 mM, pH8.0, 15 μl/measuring point).
(§5) From each reaction mixture, 15 μl was applied to P30 filter strips (from Wallac), and unincorporated ^33P-ATP was removed by washing the filter strips three times, for 10 min each time, in 0.5% phosphoric acid. After drying the filter strips for 1 hour at 70° C., the filter strips were covered with scintillator strips (MeltiLex™ A, from Wallac) and stoved for 1 hour at 90° C. The amount of incorporated ^33P (substrate phosphorylation) was determined by scintillation measurement in a gamma-radiation measuring instrument (Wallac). The measured data were standardized to 0% inhibition (enzyme reaction without inhibitor) and 100% inhibition (all assay components except enzyme). The IC50 values were determined by means of a 4-parameter fit using the company's own software.

[4] = target: T2, CDK2/CycE (Homo sapiens, UniProt P24941); assay: CDK2/CycE kinase assay (Assay 2); type: biochemical; conditions: 0.5 μM ATP, histon IIIS substrate; read-out: CDK2/CycE (Assay 2) Concentration for 50% inhibition of enzyme activity, IC50
T2 construct: purchased ProQinase GmbH, Freiburg; host or cells: baculovirus-infected insect cells (Sf9)
Experimental: 10.2 Assay 2: CDK2/CycE Kinase Assay
as §4, with “Recombinant CDK2 and CycE-GST fusion proteins, purified from baculovirus-infected insect cells (Sf9), were purchased from ProQinase GmbH, Freiburg. Histon IIIS, used as kinase substrate, was purchased from the company Sigma. CDK2/CycE (50” for “CDK1/CycB (200”
as §5

[5] = 2.5 mg/kg (group 4), 2x daily on day 5, 6, 12, 13, 19, 20, day 20
[6] = 1.5, 2.0, 2.5 mg/kg, 2x daily on day 5, 6, 12, 13, 19, 20
[7] = Mus musculus, 480 h, 2.5 mg/kg (group 4), 2x daily on day 5, 6, 12, 13, 19, 20, day 20, read-out: treatment/control ratio T/C (tumor weight)

**Q.** How did the pIC50 [1] turn out when `CCS(=N)(=O)c1ccc(Nc2ncc(C(F)(F)F)c(N[C@H](C)[C@@H](C)O)n2)cc1` (mixture of isomers) [Example 6-SI-1, (RS)-S-Ethyl-S-(4-{[4-{[(1R,2R)-2-hydroxy-1-methylpropyl]amino}-5-(trifluoromethyl)pyrimidin-2-yl]amino}phenyl)sulfoximide] was run?
**A.** Its pIC50 is 7.80.

**Q.** What does the source list for `C[C@@H](O)[C@@H](C)Oc1nc(Nc2ccc(S(=N)(=O)C3CC3)cc2)ncc1C(F)(F)F` (mixture of isomers) [Example 1-SI-2, (RS)-S-Cyclopropyl-S-(4-{[4-{[(1R,2R)-2-hydroxy-1-methylpropyl]oxy}-5-(trifluoromethyl)pyrimidin-2-yl]amino}phenyl)sulfoximide]?
**A.** reduction of tumor weight at the end of the study to % of the control group [2, 5]: 19%; effect on tumor growth (in words) [2, 6]: dose-dependent inhibition of tumor growth; response vs control in vivo at 2.5 mg/kg [2, 7]: 19%

**Q.** What does the source list for `C[C@@H](Nc1nc(Nc2ccc([S@](=N)(=O)C3CC3)cc2)ncc1Br)C(C)(C)O` [Example V11, (R)-S-[4-({5-bromo-4-[(R)-(2-hydroxy-1,2-dimethylpropyl)amino]pyrimidin-2-yl}amino)phenyl]-S-cyclopropyl-sulfoximide]?
**A.** tolerability of the cyclic treatment regimen ([2]; 8 mg/kg, 2x daily on 2 successive days followed by 5 treatment-free days): well-tolerated; effect on tumor growth (in words) ([2]; 8 mg/kg, 2x daily on day 4, 5, 11, 12): inhibited tumor growth; reduction of tumor weight at the end of the study to % of the control group ([2]; 8 mg/kg, 2x daily on day 4, 5, 11, 12, day 17): 39%; response vs control in vivo at 8 mg/kg ([2]; Mus musculus, 408 h, 8 mg/kg, 2x daily on day 4, 5, 11, 12, day 17, read-out: treatment/control ratio T/C (tumor weight)): 39%; pIC50 [3]: 8.10; pIC50 [4]: 8.15; pIC50 [1]: 7.89

**Q.** How did the “effect on tumor growth (in words)” value ([2]; 5 mg/kg, 2x daily on day 4, 5, 11, 12) turn out when `C[C@@H](Nc1nc(Nc2ccc(S(=N)(=O)C3CC3)cc2)ncc1C(F)(F)F)C(C)(C)O` (mixture of isomers) [Example 5-SI-2, (RS)-S-Cyclopropyl-S-(4-{[4-{[(R)-2-hydroxy-1,2-dimethylpropyl]amino}-5-(trifluoromethyl)pyrimidin-2-yl]amino}phenyl)sulfoximide] was run?
**A.** Its value is “greatly inhibited tumor growth”.

**Q.** What about the “reduction of tumor weight at the end of the study to % of the control group” value (“reduction … to % of the control group” below) ([2]; 5 mg/kg, 2x daily on day 4, 5, 11, 12, day 17) of the same molecule?
**A.** The value was 7%.

**Q.** What about the response vs control in vivo at 5 mg/kg ([2]; Mus musculus, 408 h, 5 mg/kg, 2x daily on day 4, 5, 11, 12, day 17, read-out: treatment/control ratio T/C (tumor weight)) of the same molecule?
**A.** The response vs control in vivo at 5 mg/kg was 7%.

**Q.** How did the pIC50 [4] turn out when `C[C@@H](Nc1nc(Nc2ccc(S(C)(=N)=O)cc2)ncc1C(F)(F)F)C(C)(C)O` (single isomer, unassigned) [Example 9-SI-2] was run?
**A.** The pIC50 was 8.52.

**Q.** How did the “reduction … to % of the control group” value [2, 5] turn out when `C[C@@H](O)[C@@H](C)Oc1nc(Nc2ccc(S(C)(=N)=O)cc2)ncc1C(F)(F)F` (mixture of isomers) [Example 2-SI-2, (RS)-S-(4-{[4-{[(1R,2R)-2-Hydroxy-1-methylpropyl]oxy}-5-(trifluoromethyl)pyrimidin-2-yl]amino}phenyl)-S-methylsulfoximide] was run?
**A.** Its value is 18%.

**Q.** And the “effect on tumor growth (in words)” value [2, 6]?
**A.** The value was “dose-dependent inhibition of tumor growth”.

**Q.** And the response vs control in vivo at 2.5 mg/kg [2, 7]?
**A.** The response vs control in vivo at 2.5 mg/kg was 18%.

**Q.** And the pIC50 [1]?
**A.** The pIC50 was 8.10.

**Q.** How did the pIC50 [4] turn out when `C[C@@H](Nc1nc(Nc2ccc(S(C)(=N)=O)cc2)ncc1C(F)(F)F)C(C)(C)O` (single isomer, unassigned) [Example 9-SI-1] was run?
**A.** The pIC50 was 8.30.

**Q.** For `CCS(=N)(=O)c1ccc(Nc2ncc(C(F)(F)F)c(N[C@H](C)[C@@H](C)O)n2)cc1` (mixture of isomers) [Example 6-SI-2, (RS)-S-Ethyl-S-(4-{[4-{[(1R,2R)-2-hydroxy-1-methylpropyl]amino}-5-(trifluoromethyl)pyrimidin-2-yl]amino}phenyl)sulfoximide], which “reduction … to % of the control group” value ([2]; 5 mg/kg (group 4), 2x daily on day 4, 5, 11, 12, 17, 18, day 20) is on record?
**A.** Its value is 8%.

**Q.** What about the “effect on tumor growth (in words)” value ([2]; 3, 4, 5 mg/kg, 2x daily on day 4, 5, 11, 12, 17, 18) of the same molecule?
**A.** The value was “dose-dependent inhibition of tumor growth”.

**Q.** And the response vs control in vivo at 5 mg/kg ([2]; Mus musculus, 480 h, 5 mg/kg (group 4), 2x daily on day 4, 5, 11, 12, 17, 18, day 20, read-out: treatment/control ratio T/C (tumor weight))?
**A.** Its response vs control in vivo at 5 mg/kg is 8%.
